Source: PMC8151276, “An Integrated Approach toward NanoBRET Tracers for Analysis of GPCR Ligand Engagement” (Molecules, 2021)

Legend:
PTGDR = target: T1, PTGDR (Homo sapiens, UniProt Q13258); assay: NanoBRET screen HiBiT-PTGDR in HEK293; type: binding
T1 construct: purchased Promega (in-house HiBiT-GPCR construct library, NanoBRET)
T1 sequence (Q13258 1-359): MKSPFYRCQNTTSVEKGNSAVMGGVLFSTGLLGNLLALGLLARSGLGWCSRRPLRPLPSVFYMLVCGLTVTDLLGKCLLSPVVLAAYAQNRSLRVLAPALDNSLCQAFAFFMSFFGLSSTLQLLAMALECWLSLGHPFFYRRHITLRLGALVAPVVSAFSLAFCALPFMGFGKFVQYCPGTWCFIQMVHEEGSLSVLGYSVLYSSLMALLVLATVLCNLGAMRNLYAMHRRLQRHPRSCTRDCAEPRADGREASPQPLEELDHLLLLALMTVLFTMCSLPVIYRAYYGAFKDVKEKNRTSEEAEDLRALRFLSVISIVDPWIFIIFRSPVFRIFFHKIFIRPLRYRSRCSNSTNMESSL
Method: (§1) Each tracer candidate was screened across the entire library of HiBiT-GPCR constructs using NanoBRET as the detection modality. As depicted in Figure 4A, the specificity of interactions was evaluated through decrease in BRET due to competitive displacement of a bound tracer by excess parental compound. Each tracer was analyzed for binding to each HiBiT-GPCR fusion in the absence and in the presence of competing parental compound. Briefly, HEK293 cells were transfected with HiBiT-GPCR constructs diluted into promoterless DNA to reduce expression and maximize translocation to the cell surface. Each tracer candidate was then screened at concentrations of 1 μM and 0.1 μM across cells expressing these fusions. Cells were treated for 1.5 h with tracer either alone or in the presence of 20 μM competing parental compound (i.e., control). BRET was measured upon addition of purified LgBiT and subsequent complementation with HiBiT genetically fused to a GPCR. The specificity of interactions was assessed through a decrease in BRET signal due to competitive displacement of the bound tracer. To further gauge the robustness of these interactions, the fold response over the control (i.e., BRETtracer/BRETcontrol) was calculated. We chose a 1.5-fold response, which translates to ≥7-fold signal over noise as the minimal threshold required to score an interaction as positive. […]. Below we highlight the screening results obtained for our exemplary fluorescent tracers based on Clozapine, Amitriptyline and AZD1283.
(§2) HiBiT-GPCR DNA constructs were diluted in 10 mM Tris pH 8 to a final concentration of 0.01 μg/μL, arrayed in 96-well plates and stored at −20 °C. For transfection, HEK293 cells were suspended in Opti-MEM (without phenol red) supplemented with 2% fetal bovine serum (Seradigm) and 100 units/mL penicillin–streptomycin (Gibco) at a final concentration of 220,000 cells/mL and dispensed into white 96-well plates at 90 μL/well. Subsequent transfections and screens were carried using an Agilent Bravo Automated Liquid Handling Platform. First, the 96-well HiBiT DNA arrays were diluted 25-fold in Opti-MEM (without serum or phenol red) to a final concentration of 0.0004 μg/μL and 20 μL of the diluted DNAs were transferred into new 96-well plates. Next, promoterless carrier DNA (1 μg/μL) was diluted 25-fold (0.04 μg/μL) and then dispensed into the diluted arrays at 20 μL/well. Following brief mixing, Viafect transfection reagent (Promega) diluted 16-fold into Opti-MEM was dispensed into the plates at 40 μL/well. After mixing by pipetting, plates were incubated for 10 min on the pipetting station deck. The DNA-transfection reagent complexes were then added to plates containing cells. To facilitate the screen, 10 μL of DNA-transfection reagent complexes were added in duplicates to the top 4 and bottom 4 rows, resulting in two identical 48-well arrays per plate. Plates with transfected cells were incubated for 18–20 h at 37 °C/5% CO2. A screen of each tracer across the entire library using two different concentrations requires duplicate plates of transfected cells. Depending on the number of tracers being screened, transfections can be scaled up using the same ratios. The next day, for each tracer, four 20× screening solutions in tracer dilution buffer (Promega) were prepared: two duplicates at final concentration of 20 μM and two duplicates at a final concentration of 2 μM. A competing unmodified compound was added to one of each duplicate at a final concentration of 400 μM. The four resulting solutions were diluted 4-fold in Opti-MEM without serum or phenol red to generate 5× solutions (5 µM and 0.5 µM tracer +/− 100 μM competing compound). To screen the library, a BioTek MultiFlo FX liquid dispenser was used to dispense 22.5 µL of tracer solution to the top 4 rows and 22.5 µL tracer + competing compound solution to the 4 bottom rows. Plates were briefly mixed on an orbital shaker and incubated for 1.5 h at room temperature. […]

CCKAR = target: T2, CCKAR (Homo sapiens, UniProt P32238); assay: NanoBRET screen HiBiT-CCKAR in HEK293; type: binding
T2 construct: purchased Promega (in-house HiBiT-GPCR construct library, NanoBRET)
T2 sequence (P32238 1-428): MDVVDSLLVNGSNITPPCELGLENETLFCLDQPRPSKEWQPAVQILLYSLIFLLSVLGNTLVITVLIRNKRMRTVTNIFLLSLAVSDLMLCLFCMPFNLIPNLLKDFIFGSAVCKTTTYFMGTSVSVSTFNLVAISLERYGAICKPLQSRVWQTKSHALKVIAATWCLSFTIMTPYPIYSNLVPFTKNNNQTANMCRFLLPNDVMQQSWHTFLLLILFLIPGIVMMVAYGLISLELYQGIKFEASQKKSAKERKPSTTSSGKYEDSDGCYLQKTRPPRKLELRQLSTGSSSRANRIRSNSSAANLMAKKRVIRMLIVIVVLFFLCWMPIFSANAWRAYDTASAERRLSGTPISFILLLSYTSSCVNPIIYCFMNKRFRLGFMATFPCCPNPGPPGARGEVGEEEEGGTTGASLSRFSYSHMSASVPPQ
Method: as §1, §2

SMILES	NanoBRET Fold Response (PTGDR; PTGDR, tracer 0.1μM)	NanoBRET Fold Response (PTGDR; PTGDR, tracer 1μM)	NanoBRET Fold Response (CCKAR; CCKAR, tracer 0.1μM)	NanoBRET Fold Response (CCKAR; CCKAR, tracer 1μM)	further results
O=C(CCOCCOCCOCCOCCNC(=O)CCc1ccc2n1[B-](F)(F)[N+]1=C(c3ccc[nH]3)C=CC1=C2)NCCCN1CCN(C2=Nc3ccccc3Oc3ccc(Cl)cc32)CC1 [Loxapine-a-2-NB590]	0.93	0.98	1.02	0.99	–
CCCn1c(=O)c2[nH]c(-c3ccc(OCC(=O)NCCNC(=O)CCOCCNC(=O)c4ccc(CNC(=O)CCc5ccc6n5[B-](F)(F)[N+]5=C(c7ccc[nH]7)C=CC5=C6)cc4)cc3)nc2n(CCC)c1=O [XAC-3-NB590]	1.02	1.06	1.01	1.01	–
CN(C)CCC=C1c2ccccc2CCc2ccc(C(=O)NCCNC(=O)CCOCCOCCOCCOCCNC(=O)CCc3ccc4n3[B-](F)(F)[N+]3=C(c5ccc[nH]5)C=CC3=C4)cc21 [Amitriptyline-a-2-NB590]	–	–	–	–	NanoBRET Fold Response (CCKAR; tracer at 0.1μM): 1.03; NanoBRET Fold Response (CCKAR; tracer at 1μM): 1.00
COc1ccccc1N1CCN(CCCCN2C(=O)c3ccc(CNC(=O)CCOCCOCCOCCOCCNC(=O)CCc4ccc5n4[B-](F)(F)[N+]4=C(c6ccc[nH]6)C=CC4=C5)cc3C2=O)CC1 [NAN-190-2-NB590]	0.97	1.01	0.98	0.96	–
O=C(CCc1ccc2n1[B-](F)(F)[N+]1=C(c3ccc[nH]3)C=CC1=C2)NCc1ccc(C(=O)NCCOCCOCCNCC(O)COc2cccc3ccccc23)cc1 (centres unmarked) [Propranolol-3-NB590]	–	–	–	–	NanoBRET Fold Response (PTGDR; PTGDR, 0.1μM): 1.05; NanoBRET Fold Response (PTGDR; PTGDR, 1μM): 0.98; NanoBRET Fold Response (CCKAR; CCKAR, 0.1μM): 0.99; NanoBRET Fold Response (CCKAR; CCKAR, 1μM): 0.98
COc1ccccc1N1CCN(CCCCN2C(=O)c3ccc(CNC(=O)CCOCCNC(=O)c4ccc(CNC(=O)CCc5ccc6n5[B-](F)(F)[N+]5=C(c7ccc[nH]7)C=CC5=C6)cc4)cc3C2=O)CC1 [NAN-190-3-NB590]	0.96	0.98	0.98	0.99	–
O=C(CCc1ccc2n1[B-](F)(F)[N+]1=C(c3ccc[nH]3)C=CC1=C2)NCc1ccc(C(=O)NCCOCCC(=O)N[C@@H]2CC[C@@]3(O)[C@H]4Cc5ccc(O)c6c5[C@@]3(CCN4CC3CC3)[C@H]2O6)cc1 [Naltrexone-3-NB590]	0.85	0.97	1.10	1.05	–
CCOC(=O)c1cc(C#N)c(N2CCC(C(=O)NS(=O)(=O)Cc3ccccc3/C=C/C(=O)NCCNC(=O)CCc3ccc4n3[B-](F)(F)[N+]3=C(c5ccc[nH]5)C=CC3=C4)CC2)nc1C [AZD1283-1-NB590]	–	–	–	–	NanoBRET Fold Response (PTGDR; PTGDR, 0.1μM): 1.42; NanoBRET Fold Response (PTGDR; PTGDR, 1μM): 1.19; NanoBRET Fold Response (CCKAR; CCKAR, 0.1μM): 1.08; NanoBRET Fold Response (CCKAR; CCKAR, 1μM): 1.11
COc1ccc2[nH]c(-c3ccc(CNC(=O)CCOCCOCCOCCOCCNC(=O)CCc4ccc5n4[B-](F)(F)[N+]4=C(c6ccc[nH]6)C=CC4=C5)cc3)c(CCNC(C)=O)c2n1 [AzomelatoninICO9-2-NB590]	–	–	–	–	NanoBRET Fold Response (PTGDR; 0.1μM tracer): 1.06; NanoBRET Fold Response (PTGDR; 1μM tracer): 0.88; NanoBRET Fold Response (CCKAR; 0.1μM tracer): 1.06; NanoBRET Fold Response (CCKAR; 1μM tracer): 1.04
CC(C)N(CC[C@H](c1ccccc1)c1cc(CCNC(=O)CCOCCOCCOCCOCCNC(=O)CCc2ccc3n2[B-](F)(F)[N+]2=C(c4ccc[nH]4)C=CC2=C3)ccc1O)C(C)C [Tolterodine-2-NB590]	1.16	0.96	1.01	1.01	–
CN1CCN(C2=Nc3cc(Cl)ccc3N(CC(=O)NCCOCCOCCOCCOCCNC(=O)CCc3ccc4n3[B-](F)(F)[N+]3=C(c5ccc[nH]5)C=CC3=C4)c3ccccc32)CC1 [Clozapine-c-2-NB590]	–	–	–	–	NanoBRET Fold Response (PTGDR; PTGDR, 0.1μM tracer): 1.04; NanoBRET Fold Response (PTGDR; PTGDR, 1μM tracer): 1.07; NanoBRET Fold Response (CCKAR; CCKAR, 0.1μM tracer): 1.01; NanoBRET Fold Response (CCKAR; CCKAR, 1μM tracer): 0.74
N#CN=C(NCCCOc1cccc(CN2CCCCC2)c1)NCCNC(=O)CCOCCOCCOCCOCCNC(=O)CCc1ccc2n1[B-](F)(F)[N+]1=C(c3ccc[nH]3)C=CC1=C2 [Aminopotentidine-2-NB590]	0.99	0.79	0.98	1.04	–
COc1ccc2c(n1)c(CCNC(C)=O)cn2CCNC(=O)CCc1ccc2n1[B-](F)(F)[N+]1=C(c3ccc[nH]3)C=CC1=C2 [Azamelatonin-1-NB590]	–	–	–	–	NanoBRET Fold Response (PTGDR; 0.1μM tracer): 1.13; NanoBRET Fold Response (PTGDR; 1μM tracer): 1.18; NanoBRET Fold Response (CCKAR; 0.1μM tracer): 1.21; NanoBRET Fold Response (CCKAR; 1μM tracer): 0.96
CN(CCC=C1c2ccccc2CCc2ccccc21)C(=O)CCOCCOCCOCCOCCNC(=O)CCc1ccc2n1[B-](F)(F)[N+]1=C(c3ccc[nH]3)C=CC1=C2 [Amitriptyline-e-2-NB590]	–	–	–	–	NanoBRET Fold Response (CCKAR; tracer at 1μM): 1.00
CC(C)N(CC[C@H](c1ccccc1)c1cc(CCNC(=O)c2ccc(CNC(=O)CCc3ccc4n3[B-](F)(F)[N+]3=C(c5ccc[nH]5)C=CC3=C4)cc2)ccc1O)C(C)C [Tolterodine-BZ-NB590]	1.03	0.98	1.05	1.03	–
O=C(CCc1ccc2n1[B-](F)(F)[N+]1=C(c3ccc[nH]3)C=CC1=C2)NCCOCCOCCNC(=O)OCCOCCN1CCN(C2=Nc3ccccc3Sc3ccccc32)CC1 [Quetiapine-a-2-NB590]	0.99	1.02	1.04	0.94	–
